In patent publication US20230373939A1 (VERTEX PHARMACEUTICALS INCORPORATED, priority 2020, published 2023):
pEC50: −log10 of the molar value. Where two headings read alike, the source gives them in different places.

Molecular target: T1, F508del in NIH 3T3 cells (Homo sapiens, UniProt P13569, DEL508-508)
T1 construct: expressed in transfected cells
Assay: 3T3 assay: membrane potential optical assay for F508del correction
Format: cell-based
Details: for pEC50: read-out: 3T3 EC50
Source text: 1. Membrane Potential Optical Methods for Assaying F508del Modulation Properties of Compounds
The assay utilizes fluorescent voltage sensing dyes to measure changes in membrane potential using a fluorescent plate reader (e.g., FLTPR III, Molecular Devices, Inc.) as a readout for increase in functional F508del in NIH 3T3 cells. The driving force for the response is the creation of a chloride ion gradient in conjunction with channel activation by a single liquid addition step after the cells have previously been treated with compounds and subsequently loaded with a voltage sensing dye.
2. Identification of Corrector Compounds
To identify correctors of F508del, a single-addition HTS assay format was developed. This HTS assay utilizes fluorescent voltage sensing dyes to measure changes in membrane potential on the FLIPR III as a measurement for increase in gating (conductance) of F508del in F508del NUT 3T3 cells. The F508del NUT 3T3 cell cultures were incubated with the corrector compounds at a range of concentrations for 18-24 hours at 37° C., and subsequently loaded with a redistribution dye. The driving force for the response is a Cl^− ion gradient in conjunction with channel activation with forskolin in a single liquid addition step using a fluorescent plate reader such as FLIPR III.
Bath Solution #1: (in mM) NaCl 160, KCl 4.5, CaCl2 2, MgCl2 1, HEPES 10, pH 7.4 with NaOH.
Chloride-free bath solution: Chloride salts in Bath Solution #1 (above) are substituted with gluconate salts.
NIH3T3 mouse fibroblasts stably expressing F508del were used for optical measurements of membrane potential. The cells were maintained at 37° C. in 5% CO2 and 90% humidity in Dulbecco's modified Eagle's medium supplemented with 2 mM glutamine, 10% fetal bovine serum, 1×NEAA, b-ME, 1×pen/strep, and 25 mM HEPES in 175 cm^2 culture flasks. For all optical assays, the cells were seeded at ˜20,000/well in 384-well Matrigel-coated plates. For the correction assays, the cells were cultured at 37° C. with and without compounds for 16-24 hours.

[1] = NIH3T3, read-out: 3T3 Max Activity (%)
[2] = NIH3T3, NIH 3T3 cells, F508del, read-out: 3T3 Max Activity (%)

T1 sequence (P13569 with tags, fused parts or gaps DEL508-508): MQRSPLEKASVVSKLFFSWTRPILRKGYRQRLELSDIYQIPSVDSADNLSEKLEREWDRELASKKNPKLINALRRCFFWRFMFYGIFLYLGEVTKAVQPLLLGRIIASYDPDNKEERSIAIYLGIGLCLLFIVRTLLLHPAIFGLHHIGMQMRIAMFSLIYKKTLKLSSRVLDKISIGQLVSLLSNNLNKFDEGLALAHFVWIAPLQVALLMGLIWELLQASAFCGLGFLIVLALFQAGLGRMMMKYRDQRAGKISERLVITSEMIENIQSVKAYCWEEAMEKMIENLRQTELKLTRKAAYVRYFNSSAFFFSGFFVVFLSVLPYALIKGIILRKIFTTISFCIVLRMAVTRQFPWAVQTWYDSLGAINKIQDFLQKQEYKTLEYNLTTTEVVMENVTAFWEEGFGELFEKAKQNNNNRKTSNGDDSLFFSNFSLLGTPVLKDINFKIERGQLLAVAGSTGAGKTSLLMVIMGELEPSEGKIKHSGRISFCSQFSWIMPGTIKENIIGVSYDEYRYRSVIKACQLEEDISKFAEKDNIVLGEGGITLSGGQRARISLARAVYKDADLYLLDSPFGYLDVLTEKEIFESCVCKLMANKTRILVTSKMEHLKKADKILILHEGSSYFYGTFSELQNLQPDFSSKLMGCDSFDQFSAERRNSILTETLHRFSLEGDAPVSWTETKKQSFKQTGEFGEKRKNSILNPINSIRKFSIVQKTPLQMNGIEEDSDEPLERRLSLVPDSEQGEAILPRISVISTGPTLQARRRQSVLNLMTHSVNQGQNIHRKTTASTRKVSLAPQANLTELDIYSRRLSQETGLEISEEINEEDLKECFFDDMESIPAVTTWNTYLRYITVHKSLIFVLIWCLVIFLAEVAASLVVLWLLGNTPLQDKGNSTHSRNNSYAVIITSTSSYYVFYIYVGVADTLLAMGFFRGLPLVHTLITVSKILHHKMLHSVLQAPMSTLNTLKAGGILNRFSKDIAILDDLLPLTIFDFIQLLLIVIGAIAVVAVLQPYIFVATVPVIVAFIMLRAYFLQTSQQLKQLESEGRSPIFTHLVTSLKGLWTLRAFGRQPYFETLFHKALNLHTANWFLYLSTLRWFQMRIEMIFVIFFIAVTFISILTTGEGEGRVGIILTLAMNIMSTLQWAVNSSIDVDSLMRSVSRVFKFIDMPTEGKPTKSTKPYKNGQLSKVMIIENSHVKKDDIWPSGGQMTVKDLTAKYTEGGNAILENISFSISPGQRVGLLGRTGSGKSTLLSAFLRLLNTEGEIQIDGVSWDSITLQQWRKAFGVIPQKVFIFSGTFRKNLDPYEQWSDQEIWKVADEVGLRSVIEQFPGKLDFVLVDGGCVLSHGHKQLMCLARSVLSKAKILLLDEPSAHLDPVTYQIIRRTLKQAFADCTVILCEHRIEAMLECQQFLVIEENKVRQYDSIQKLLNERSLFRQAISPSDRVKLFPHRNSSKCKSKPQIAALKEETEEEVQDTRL

SMILES	pEC50 (NIH 3T3 cells, F508del)	Emax [2] [%]	Emax [1] [%]
O=S(=O)(Nc1onc(-c2ccc(Cl)cc2)c1-c1ccc(Cl)cc1)c1ccccc1 [Compound 1, N-[3,4-bis(4-chlorophenyl)isoxazol-5-yl]benzenesulfonamide]	5.52 to 6.00	–	30 to 60
CCCc1oc(NS(=O)(=O)c2ccccc2)nc1-c1ccccc1 [Compound 2, N-(4-phenyl-5-propyl-oxazol-2-yl)benzenesulfonamide]	4.52 to 5.52	–	30 to 60
Cc1ccc(-c2nc(NS(=O)(=O)c3ccccc3)oc2-c2ccc(C)cc2)cc1 [Compound 3, N-[4,5-bis(p-tolyl)oxazol-2-yl]benzenesulfonamide]	5.52 to 6.00	–	> 60
COc1ccccc1Cc1cnc(NS(=O)(=O)c2ccccc2)o1 [Compound 4, N-[5-[(2-methoxyphenyl)methyl]oxazol-2-yl]benzenesulfonamide]	–	< 30	–
CCCc1sc(NS(=O)(=O)c2ccccc2)nc1-c1ccc(C)cc1 [Compound 5, N-[5-propyl-4-(p-tolyl)thiazol-2-yl]benzenesulfonamide]	> 6.00	–	> 60
CCCc1sc(NS(=O)(=O)c2ccccc2)nc1-c1ccc(C)cc1C [Compound 6, N-[4-(2,4-dimethylphenyl)-5-propyl-thiazol-2-yl]benzenesulfonamide]	> 6.00	–	> 60
O=S(=O)(Nc1nc(-c2ccccc2)c(-c2ccccc2)s1)c1ccccc1 [Compound 7, N-(4,5-diphenylthiazol-2-yl)benzenesulfonamide]	5.52 to 6.00	–	> 60
Cc1ccc(C)c(-c2nc(NS(=O)(=O)c3ccccc3)sc2C)c1 [Compound 8, N-[4-(2,5-dimethylphenyl)-5-methyl-thiazol-2-yl]benzenesulfonamide]	> 6.00	–	> 60
Nc1cccc(S(=O)(=O)Nc2nc(-c3ccccc3)c(Cc3ccccc3)s2)c1 [Compound 9, 3-amino-N-(5-benzyl-4-phenyl-thiazol-2-yl)benzenesulfonamide]	5.52 to 6.00	30 to 60	–
Cc1ccc(-c2nc(NS(=O)(=O)c3ccccc3)sc2-c2ccc(C)cc2)cc1 [Compound 10, N-[4,5-bis(p-tolyl)thiazol-2-yl]benzenesulfonamide]	> 6.00	–	30 to 60
O=S(=O)(Nc1nc(-c2ccccc2)c(Oc2ccccc2)s1)c1ccccc1 [Compound 11, N-(5-phenoxy-4-phenyl-thiazol-2-yl)benzenesulfonamide]	–	< 30	–
O=S(=O)(Nc1nc(C2CC2)cs1)c1ccccc1 [Compound 12, N-(4-cyclopropylthiazol-2-yl)benzenesulfonamide]	–	< 30	–
COC(=O)c1sc(NS(=O)(=O)c2ccccc2)nc1-c1ccc(C)cc1 [Compound 13, methyl 2-(benzenesulfonamido)-4-(p-tolyl)thiazole-5-carboxylate]	4.52 to 5.52	> 60	–
O=C(NCc1ccccc1)c1sc(NS(=O)(=O)c2ccccc2)nc1-c1ccccc1 [Compound 14, 2-(benzenesulfonamido)-N-benzyl-4-phenyl-thiazole-5-carboxamide]	4.52 to 5.52	30 to 60	–
CC(C)(C)CCNC(=O)c1sc(NS(=O)(=O)c2ccccc2)nc1-c1ccccc1 [Compound 15, 2-(benzenesulfonamido)-N-(3,3-dimethylbutyl)-4-phenyl-thiazole-5-carboxamide]	4.52 to 5.52	30 to 60	–
O=S(=O)(Nc1nc(-c2ccc(Cl)cc2)c(S(=O)(=O)c2ccccc2)s1)c1ccccc1 [Compound 16, N-[5-(benzenesulfonyl)-4-(4-chlorophenyl)thiazol-2-yl]benzenesulfonamide]	5.52 to 6.00	30 to 60	–
CC(C)c1sc(NS(=O)(=O)c2ccccc2)nc1-c1ccccc1 [Compound 17, N-(5-isopropyl-4-phenyl-thiazol-2-yl)benzenesulfonamide]	4.52 to 5.52	> 60	–
CCCc1sc(NS(=O)(=O)c2ccccc2)nc1-c1cc(C)ccc1C [Compound 18, N-[4-(2,5-dimethylphenyl)-5-propyl-thiazol-2-yl]benzenesulfonamide]	> 6.00	> 60	–
CCCc1sc(NS(=O)(=O)c2ccccc2)nc1-c1ccc(OCC)cc1 [Compound 19, N-[4-(4-ethoxyphenyl)-5-propyl-thiazol-2-yl]benzenesulfonamide]	5.52 to 6.00	30 to 60	–
CCCc1sc(NS(=O)(=O)c2ccccc2)nc1-c1ccc(OC)cc1 [Compound 20, N-[4-(4-methoxyphenyl)-5-propyl-thiazol-2-yl]benzenesulfonamide]	5.52 to 6.00	> 60	–
CCc1sc(NS(=O)(=O)c2ccccc2)nc1-c1ccccc1 [Compound 21, N-(5-ethyl-4-phenyl-thiazol-2-yl)benzenesulfonamide]	4.52 to 5.52	> 60	–
Cc1sc(NS(=O)(=O)c2ccccc2)nc1-c1ccc2c(c1)OCCO2 [Compound 22, N-[4-(2,3-dihydro-1,4-benzodioxin-6-yl)-5-methyl-thiazol-2-yl]benzenesulfonamide]	4.52 to 5.52	30 to 60	–
COc1ccccc1C1(c2cnc(NS(=O)(=O)c3ccccc3)s2)CC1 [Compound 25, N-[5-[1-(2-methoxyphenyl)cyclopropyl]thiazol-2-yl]benzenesulfonamide]	4.52 to 5.52	–	> 60
Cc1nc(NS(=O)(=O)c2ccccc2)sc1-c1ccccc1 [Compound 26, N-(4-methyl-5-phenyl-thiazol-2-yl)benzenesulfonamide]	5.52 to 6.00	–	> 60
COc1ccc(Cl)cc1Nc1nc(-c2sc(NS(=O)(=O)c3ccccc3)nc2C)cs1 [Compound 27, N-[5-[2-(5-chloro-2-methoxy-anilino)thiazol-4-yl]-4-methyl-thiazol-2-yl]benzenesulfonamide]	5.52 to 6.00	–	30 to 60

The next lines start with results.

pEC50 (NIH 3T3 cells, F508del)	Emax [2] [%]	SMILES	Emax [1] [%]
4.52 to 5.52	> 60	Cc1sc(NS(=O)(=O)c2ccccc2)nc1-c1ccccc1 [Compound 23, N-(5-methyl-4-phenyl-thiazol-2-yl)benzenesulfonamide]	–
4.52 to 5.52	> 60	CCOC(=O)c1sc(NS(=O)(=O)c2ccccc2)nc1-c1ccccc1 [Compound 24, ethyl 2-(benzenesulfonamido)-4-phenyl-thiazole-5-carboxylate]	–
–	< 30	Nc1cccc(S(=O)(=O)Nc2nc(-c3ccccc3)c(Cc3cccc(C(=O)O)c3)s2)c1 [Compound 28, 3-[[2-[(3-aminophenyl)sulfonylamino]-4-phenyl-thiazol-5-yl]methyl]benzoic acid]	–
4.52 to 5.52	30 to 60	COc1ccccc1Nc1nc(-c2sc(NS(=O)(=O)c3ccccc3)nc2C)cs1 [Compound 29, N-[5-[2-(2-methoxyanilino)thiazol-4-yl]-4-methyl-thiazol-2-yl]benzenesulfonamide]	–
5.52 to 6.00	30 to 60	Cc1nc(NS(=O)(=O)c2ccccc2)sc1-c1csc(Nc2ccccn2)n1 [Compound 30, N-[4-methyl-5-[2-(2-pyridylamino)thiazol-4-yl]thiazol-2-yl]benzenesulfonamide]	–
–	< 30	O=S(=O)(Nc1ncc(Cc2cnccn2)s1)c1ccccc1 [Compound 31, N-[5-(pyrazin-2-ylmethyl)thiazol-2-yl]benzenesulfonamide]	–
–	30 to 60	O=S(=O)(Nc1ncc(Cc2ccccc2)s1)c1ccccc1 [Compound 32, N-[5-benzyl-thiazol-2-yl]benzenesulfonamide]	–
–	< 30	O=C(Nc1ccccc1)c1sc(NS(=O)(=O)c2ccccc2)nc1-c1ccccc1 [Compound 33, N,4-diphenyl-2-(phenylsulfonamido)thiazole-5-carboxamide]	–
–	< 30	O=C(c1sc(NS(=O)(=O)c2ccccc2)nc1-c1ccccc1)N1CCCCC1 [Compound 34, N-[4-phenyl-5-(piperidine-1-carbonyl)thiazol-2-yl]benzenesulfonamide]	–
–	< 30	COCCNC(=O)c1sc(NS(=O)(=O)c2ccccc2)nc1-c1ccccc1 [Compound 35, 2-(benzenesulfonamido)-N-(2-methoxyethyl)-4-phenyl-thiazole-5-carboxamide]	–
–	< 30	CC(C)(C)NC(=O)c1sc(NS(=O)(=O)c2ccccc2)nc1-c1ccccc1 [Compound 36, 2-(benzenesulfonamido)-N-tert-butyl-4-phenyl-thiazole-5-carboxamide]	–
–	< 30	O=C(NCCOCC1CC1)c1sc(NS(=O)(=O)c2ccccc2)nc1-c1ccccc1 [Compound 37, 2-(benzenesulfonamido)-N-[2-(cyclopropylmethoxy)ethyl]-4-phenyl-thiazole-5-carboxamide]	–
–	< 30	CCCN(C)C(=O)c1sc(NS(=O)(=O)c2ccccc2)nc1-c1ccccc1 [Compound 38, 2-(benzenesulfonamido)-N-methyl-4-phenyl-N-propyl-thiazole-5-carboxamide]	–
